According to patent publication EP0195316A1, “Quinolonecarboxylic acid derivatives” (KYORIN PHARMACEUTICAL CO., LTD., priority 1985, dated 1986):
In brackets after ≈: the same amount, converted by molar mass. Where two headings read alike, the source gives them in different places.

What was measured:
[1] = system: Escherichia coli NIHJ JC-2; experiment: MIC, in vitro antibacterial activity (standard strains); type: cell-based; settings: NIHJJC2
Shigella sonnei IID 969 = experiment: as above; type: cell-based; settings: IID969; Shigella sonnei IID 969, 10^6 cells/ml, Gram -
Description: (§1) Minimal inhibitory concentrations (MICs) were determined in accordance with the method recommended by Japan Society of Chemotherapy.

Pst. microns UPI 5464-1 = experiment: as above; type: cell-based; settings: Pst. microns UPI 5464-1, 10^6 cells/ml, Gram +
K. pneumoniae 1-220S = experiment: as above; type: cell-based; settings: Klebsiella pneumoniae, 1220S
[2] = system: Proteus vulgaris IFO 3167; experiment: as above; type: cell-based; settings: Proteus vulgaris, IFO3167
S. pneumoniae S-4288 = experiment: In vivo antibacterial activity against systemic infections in mice; settings: Streptococcus pneumoniae
Description: (§2) The infections were produced by intraperitoneal injection of suspension of the bacterial cells. The compounds were administered orally at an hour after the injection. Five male ICR mice were used for each dosage. […] The efficacy of the present compound are shown in Table 4 in comparison with those of the reference compounds.

E. coli ML 4707 = experiment: as above; settings: Escherichia coli
Description: as §2

S. aureus Smith = experiment: as above; settings: Staphylococcus aureus
Description: as §2

P. aeruginosa IID 1210 = experiment: as above; settings: Pseudomonas aeruginosa
Description: as §2

Bacteroides fragilis 2 = experiment: Experimental local infection with anaerobic bacteria in granuloma pouches in rats; type: in vivo; settings: pouch exudate, Mean ± S.D. (n=3)
Description: Under ether anesthesia, male Wistar rats (7 weeks old) were injected subcutaneously on the back with 20 ml of germ-free air (sterilized by membrane filtration, 0.45 µm pore size) by means of a syringe. Continuously, an inflammatory reaction was induced by injecting one ml of sterile croton oil solution (1 % in olive oil) into the formed air pouch. After 2 days, the air was removed. On the eighth day, 0.5 ml of Bacteroides fragilis 2 culture (10^6 CFU/ml) were injected into bore granuloma pouches. Each compound was administered orally or subcutaneously at 2 hours after infection. […] During experiment, intake of food and water was free. It was known that the activity of the existing quinolonecarboxylic acid compounds against obligate anaerobic bacteria was very weak. […] This property is also one of excellent characters of the present comound.

[3] = system: nalidixic acid-resistant Salmonella typhimurium TA98 strain (nal^r); experiment: Mutagenicity, reverse mutation assay; settings: 0.5 µg/plate, S9-mix +, positive control
From the text: As for antibacterial agents, assessment of mutagenicity using bacteria is somewhat difficult because of their activity on the test bacteria.

S. epidermidis = experiment: MIC, in vitro antibacterial activity (clinical isolates); type: cell-based; settings: Staphylococcus epidermidis, No. of strains 10
P. maltophilia = experiment: as above; type: cell-based; settings: Stenotrophomonas maltophilia, No. of strains 9
Acinetobacter sp. = experiment: as above; type: cell-based
M. morganii = experiment: as above; type: cell-based; settings: Morganella morganii, No. of strains 8
E. faecalis = experiment: as above; type: cell-based; settings: Enterococcus faecalis, No. of strains 5
Campylobacter jejuni = experiment: as above; type: cell-based; settings: No. of strains 20
Bacteroides sp. = experiment: as above; type: cell-based; settings: No. of strains 17
H. influenzae = experiment: as above; type: cell-based; settings: Haemophilus influenzae, No. of strains 26
P. pneumoniae = experiment: as above; type: cell-based; settings: No. of strains 25
Description: as §1

S. aureus = experiment: as above; type: cell-based; settings: Staphylococcus aureus, No. of strains 21
Description: as §1

E. coli = experiment: as above; type: cell-based; settings: Escherichia coli, No. of strains 25
Description: as §1

B. catarrhalis = experiment: as above; type: cell-based; settings: Moraxella catarrhalis
N. gonorrhoeae = experiment: as above; type: cell-based; settings: Neisseria gonorrhoeae, No. of strains 16
S. pyogenes = experiment: as above; type: cell-based; settings: Streptococcus pyogenes
S. pneumoniae = experiment: as above; type: cell-based; settings: Streptococcus pneumoniae
S. marcescens = experiment: as above; type: cell-based; settings: Serratia marcescens, No. of strains 20
P. vulgaris = experiment: as above; type: cell-based; settings: Proteus vulgaris, No. of strains 6
P. mirabilis = experiment: as above; type: cell-based; settings: Proteus mirabilis, No. of strains 10
P. aeruginosa = experiment: as above; type: cell-based; settings: Pseudomonas aeruginosa
C. freundii = experiment: as above; type: cell-based; settings: Citrobacter freundii, No. of strains 9
Alcaligenes sp. = experiment: as above; type: cell-based; settings: No. of strains 9
MR-S. aureus = experiment: as above; type: cell-based; settings: Staphylococcus aureus, No. of strains 46
N. meningitidis = experiment: as above; type: cell-based; settings: Neisseria meningitidis, No. of strains 3
E. cloacae = experiment: as above; type: cell-based; settings: Enterobacter cloacae
F. varium KYA 8501 = experiment: MIC, in vitro antibacterial activity (standard strains); type: cell-based; settings: Fusobacterium varium, KYA8501
[4] = system: B. thetaiotaomicron (0661); experiment: as above; type: cell-based; settings: Bacteroides thetaiotaomicron
S. pneumoniae IID 552 = experiment: as above; type: cell-based; settings: Streptococcus pneumoniae, IID552
[5] = system: Klebsiella pneumoniae KY(GN)6445; experiment: as above; type: cell-based; settings: Klebsiella pneumoniae
[6] = system: Alcaligenes faecalis 0104002; experiment: as above; type: cell-based; settings: Alcaligenes faecalis, 0104002
[7] = system: Streptococcus pyogenes (S-8); experiment: as above; type: cell-based; settings: Streptococcus pyogenes
C. perfringens KYA 13123 = experiment: microbe, parasite or virus in culture; type: cell-based; settings: Clostridium perfringens, KYA13123
[8] = S4288, S. pneumoniae S-4288 systemic infection (i.p.), male ICR mice, oral administration an hour after infection, read-out: ED50
[9] = ML4707, E. coli ML 4707 systemic infection (i.p.), male ICR mice, oral administration an hour after infection, read-out: ED50
[10] = IID1210, P. aeruginosa IID 1210 systemic infection (i.p.), male ICR mice, oral administration an hour after infection, read-out: ED50

O=C(O)c1cn(C2CC2)c2cc(N3CCNCC3)c(F)cc2c1=O [CFLX, Ciprofloxacin]
MIC ([1]; Escherichia coli NIHJ JC-2, 10^6 cells/ml, Gram -, read-out: MIC): ≤ 0.006 µg/mL
MIC (Shigella sonnei IID 969): ≤ 0.006 µg/mL
MIC (Pst. microns UPI 5464-1): 0.2 µg/mL
MIC (K. pneumoniae 1-220S): 0.05 µg/mL (≈ 0.151 µM)
MIC [2]: ≤ 0.006 µg/mL
ED50 (S. pneumoniae S-4288; S4288, po): > 100 mg/kg
ED50 (E. coli ML 4707; ML4707, po): 1.5 mg/kg
ED50 (S. aureus Smith; po): 31 mg/kg
ED50 (P. aeruginosa IID 1210; IID1210, po): 4.5 mg/kg

CO[C@@]1(NC(=O)Cc2cccs2)C(=O)N2C(C(=O)O)=C(COC(N)=O)CS[C@@H]21 [CFX, cefoxitin]
Viable cells count (log) / ml (Bacteroides fragilis 2; 50 mg/kg, s.c., 6 hr): 3.9 ± 0.25 (log) / ml
Viable cells count (log) / ml (Bacteroides fragilis 2; 50 mg/kg, s.c., 24 hr): 6.3 ± 0.31 (log) / ml

CCC[C@@H]1C[C@@H](C(=O)N[C@@H]([C@H]2O[C@H](SC)[C@H](O)[C@@H](O)[C@H]2O)[C@H](C)Cl)N(C)C1 [CLDM, clindamycin]
Viable cells count (log) / ml (Bacteroides fragilis 2; 25 mg/kg, s.c., 6 hr): 4.6 ± 0.058 (log) / ml
Viable cells count (log) / ml (Bacteroides fragilis 2; 25 mg/kg, s.c., 24 hr): 6.4 ± 0.38 (log) / ml

Nc1ccc2cc3ccccc3cc2c1 [Example 2AA, 2-Aminoanthracene]
His^+ revertants per plate [3]: 277

Cc1ncc([N+](=O)[O-])n1CCO [MND, metronidazole]
Viable cells count (log) / ml (Bacteroides fragilis 2; 50 mg/kg, p.o., 6 hr): 5.2 ± 0.10 (log) / ml
Viable cells count (log) / ml (Bacteroides fragilis 2; 50 mg/kg, p.o., 24 hr): 5.7 ± 0.60 (log) / ml

CCn1cc(C(=O)O)c(=O)c2cc(F)c(N3CCNCC3)cc21 [NFLX, Norfloxacin]
MIC (S. epidermidis): 0.78 µg/mL (≈ 2.44 µM)
MIC (P. maltophilia): 25 µg/mL (≈ 78.3 µM)
MIC (Acinetobacter sp.; Acinetobacter): 12.5 µg/mL (≈ 39.1 µM)
MIC (M. morganii): 0.05 µg/mL (≈ 0.157 µM)
MIC (E. faecalis): 6.25 µg/mL (≈ 19.6 µM)
MIC (Campylobacter jejuni): 0.78 µg/mL (≈ 2.44 µM)
MIC (Bacteroides sp.): 50 µg/mL (≈ 157 µM)
MIC (H. influenzae): 0.2 µg/mL (≈ 0.626 µM)
MIC (P. pneumoniae): 0.78 µg/mL (≈ 2.44 µM)
MIC (S. aureus): 1.56 µg/mL (≈ 4.89 µM)
MIC (E. coli): 0.1 µg/mL (≈ 0.313 µM)
MIC (B. catarrhalis): 1.56 µg/mL (≈ 4.89 µM)
MIC (N. gonorrhoeae): 0.1 µg/mL (≈ 0.313 µM)
MIC (S. pyogenes): 1.56 µg/mL (≈ 4.89 µM)
MIC (S. pneumoniae): 12.5 µg/mL (≈ 39.1 µM)
MIC (S. marcescens): 0.1 µg/mL (≈ 0.313 µM)
MIC (P. vulgaris): 0.05 µg/mL (≈ 0.157 µM)
MIC (P. mirabilis): 0.1 µg/mL (≈ 0.313 µM)
MIC (P. aeruginosa): 1.56 µg/mL (≈ 4.89 µM)
MIC (C. freundii): 0.39 µg/mL (≈ 1.22 µM)
MIC (Alcaligenes sp.): 100 µg/mL (≈ 313 µM)
MIC (MR-S. aureus): 25 µg/mL (≈ 78.3 µM)
MIC (N. meningitidis): 0.05 µg/mL (≈ 0.157 µM)
MIC (E. cloacae): 0.1 µg/mL (≈ 0.313 µM)
ED50 (S. pneumoniae S-4288; [8]): > 100 mg/kg
ED50 (E. coli ML 4707; [9]): 8.9 mg/kg
ED50 (P. aeruginosa IID 1210; [10]): 18.9 mg/kg

CC1COc2c(N3CCN(C)CC3)c(F)cc3c(=O)c(C(=O)O)cn1c23 (stereo not drawn) [OFLX, Ofloxacin]
MIC (S. epidermidis): 0.39 µg/mL (≈ 1.08 µM)
MIC (P. maltophilia): 6.25 µg/mL (≈ 17.3 µM)
MIC (Acinetobacter sp.; clinical isolates Acinetobacter sp., No. of strains 13, read-out: MIC): 3.13 µg/mL (≈ 8.66 µM)
MIC (M. morganii): 0.1 µg/mL (≈ 0.277 µM)
MIC (E. faecalis): 3.13 µg/mL (≈ 8.66 µM)
MIC (Campylobacter jejuni): 0.39 µg/mL (≈ 1.08 µM)
MIC (Bacteroides sp.): 3.13 µg/mL (≈ 8.66 µM)
MIC (H. influenzae): 0.1 µg/mL (≈ 0.277 µM)
MIC (P. pneumoniae): 0.78 µg/mL (≈ 2.16 µM)
MIC (S. aureus): 0.39 µg/mL (≈ 1.08 µM)
MIC (E. coli): 0.1 µg/mL (≈ 0.277 µM)
MIC (B. catarrhalis; clinical isolates B. catarrhalis, No. of strains 21, read-out: MIC): 0.2 µg/mL (≈ 0.553 µM)
MIC (N. gonorrhoeae): 0.05 µg/mL (≈ 0.138 µM)
MIC (S. pyogenes; clinical isolates S. pyogenes, No. of strains 6, read-out: MIC): 1.56 µg/mL (≈ 4.32 µM)
MIC (S. pneumoniae; clinical isolates S. pneumoniae, No. of strains 6, read-out: MIC): 3.13 µg/mL (≈ 8.66 µM)
MIC (S. marcescens): 0.2 µg/mL (≈ 0.553 µM)
MIC (P. vulgaris): 0.1 µg/mL (≈ 0.277 µM)
MIC (P. mirabilis): 0.2 µg/mL (≈ 0.553 µM)
MIC (P. aeruginosa; clinical isolates P. aeruginosa, No. of strains 27, read-out: MIC): 3.13 µg/mL (≈ 8.66 µM)
MIC (C. freundii): 0.39 µg/mL (≈ 1.08 µM)
MIC (Alcaligenes sp.): 6.25 µg/mL (≈ 17.3 µM)
MIC (MR-S. aureus): 1.56 µg/mL (≈ 4.32 µM)
MIC (N. meningitidis): 0.025 µg/mL (≈ 0.0692 µM)
MIC (E. cloacae): 0.1 µg/mL (≈ 0.277 µM)
ED50 (S. pneumoniae S-4288; [8]): > 100 mg/kg
ED50 (E. coli ML 4707; [9]): 2.1 mg/kg
ED50 (S. aureus Smith; S. aureus Smith systemic infection (i.p.), male ICR mice, oral administration an hour after infection, read-out: ED50): 17 mg/kg
ED50 (P. aeruginosa IID 1210; [10]): 12.1 mg/kg

O=C(O)c1cn(C2CC2)c2c(F)c(N3CCNCC3)c(F)cc2c1=O [Ref.1, 1-Cyclopropyl-6,8-difluoro-1,4-dihydro-4-oxo-7-(1-piperazinyl)-3-quinoline-carboxylic acid]
MIC ([1]; Escherichia coli): ≤ 0.006 µg/mL
MIC (Shigella sonnei IID 969): ≤ 0.006 µg/mL
MIC (K. pneumoniae 1-220S): 0.05 µg/mL (≈ 0.143 µM)
MIC (F. varium KYA 8501): 3.13 µg/mL (≈ 8.96 µM)
MIC [4]: 3.13 µg/mL (≈ 8.96 µM)
MIC (S. pneumoniae IID 552): 0.78 µg/mL (≈ 2.23 µM)
MIC [5]: 0.0125 µg/mL (≈ 0.0358 µM)
MIC [6]: 0.025 µg/mL (≈ 0.0716 µM)
MIC [7]: 0.39 µg/mL (≈ 1.12 µM)
MIC (C. perfringens KYA 13123): 0.39 µg/mL (≈ 1.12 µM)
